According to patent publication US20100298141A1, “SUBSTITUTED PYRIDINE N-OXIDE HERBICIDES” (E. I. DU PONT DE NEMOURS AND COMPANY, priority 2007, published 2010):

What was measured:
[1] = test system: rice; assay: Test C flooded paddy test; type: in vivo, Oryza sativa; details: Flood
Method in brief: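 Visual injury ratings against untreated controls, taken 13 to 15 days after compound was added to paddy water standing 3 cm above the soil.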

[2] = test system: wheat; assay: Test C pre-/postemergence test; type: in vivo, Triticum aestivum
Method in brief: (§1)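 Seeds were planted and treated preemergence with test chemical in a non-phytotoxic solvent mixture containing surfactant. Postemergence applications of the same formulation went onto plants 2 to 18 cm tall (1- to 4-leaf stage). A dash marks no test result.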

[3] = test system: johnsongrass; assay: Test C pre-/postemergence test; type: in vivo, Sorghum halepense
Method in brief: as §1

[4] = test system: wild oat; assay: Test C pre-/postemergence test; type: in vivo, Avena fatua
Method in brief: as §1

[5] = test system: morningglory; assay: Test C pre-/postemergence test; type: in vivo, Ipomoea coccinea
Method in brief: as §1

[6] = test system: eastern black nightshade; assay: Test C pre-/postemergence test; type: in vivo, Solanum ptycanthum
Method in brief: as §1

[7] = test system: redroot pigweed; assay: Test A pre-/postemergence greenhouse test; type: in vivo, Amaranthus retroflexus; details: for Pigweed plant response rating: 0 to 100 scale
Method in brief: (§2)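 Untreated controls served as the reference for visual injury ratings taken about ten days after spraying. The non-phytotoxic solvent/surfactant formulation was applied preemergence to seeded loam and sand and postemergence to plants two to ten cm high.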

[8] = test system: bermudagrass; assay: Test C pre-/postemergence test; type: in vivo, Cynodon dactylon
Method in brief: as §1

[9] = test system: corn; assay: Test C pre-/postemergence test; type: in vivo, Zea mays
Method in brief: as §1

[10] = test system: common (oilseed) sunflower; assay: Test C pre-/postemergence test; type: in vivo, Helianthus annuus
Method in brief: as §1

[11] = test system: corn; assay: Test A pre-/postemergence greenhouse test; type: in vivo, Zea mays; details: for Corn plant response rating: 0 to 100 scale
Method in brief: as §2

[12] = test system: yellow nutsedge; assay: Test C pre-/postemergence test; type: in vivo, Cyperus esculentus
Method in brief: as §1

[13] = test system: cocklebur; assay: Test C pre-/postemergence test; type: in vivo, Xanthium strumarium
Method in brief: as §1

[14] = test system: Italian ryegrass; assay: Test C pre-/postemergence test; type: in vivo, Lolium multiflorum
Method in brief: as §1

[15] = test system: kochia; assay: Test C pre-/postemergence test; type: in vivo, Kochia scoparia
Method in brief: as §1

[16] = test system: giant foxtail; assay: Test C pre-/postemergence test; type: in vivo, Setaria faberii
Method in brief: as §1

[17] = test system: morningglory; assay: Test A pre-/postemergence greenhouse test; type: in vivo, Ipomoea spp.; details: for Morningglory plant response rating: 0 to 100 scale
Method in brief: as §2

[18] = Preemergence, 31 g ai/ha, scale 0 to 100 (0 no effect, 100 complete control)
[19] = preemergence, 250 g ai/ha, scale 0 (no effect) to 100 (complete control)
[20] = 62 g ai/ha, Preemergence, scale 0 to 100
[21] = 125 g ai/ha, preemergence, scale 0 (no effect) to 100 (complete control)
[22] = Postemergence, 125 g ai/ha, 0 is no effect, 100 is complete control
[23] = Postemergence, 500 g ai/ha, 0 is no effect, 100 is complete control
[24] = Preemergence, 125 g ai/ha, 0 no effect, 100 complete control
[25] = Preemergence, 500 g ai/ha, 0 to 100 scale where 0 is no effect and 100 is complete control

**Q.** For `Cc1cc[n+]([O-])c(S(=O)(=O)C(Cl)c2c(C(F)(F)F)nn(C)c2OCC(F)(F)F)c1` (racemic) [Compound 37], which “Plant response rating, Rice” value ([1]; 31 g ai/ha, scale 0 to 100 (0 no effect, 100 complete control)) is on record?
**A.** Its value is 15.

**Q.** And the “Plant response rating, Rice” value ([1]; 62 g ai/ha, scale 0 to 100, 0 no effect, 100 complete control, 13 to 15 days)?
**A.** The value was 15.

**Q.** And the “Plant response rating, Rice” value ([1]; 125 g ai/ha, scale 0 to 100, 0 no effect, 100 complete control, 13 to 15 days)?
**A.** The value was 25.

**Q.** And the “Plant response rating, Rice” value ([1]; 250 g ai/ha, scale 0 to 100, 0 no effect, 100 complete control, 13 to 15 days)?
**A.** The value was 70.

**Q.** What about the “Plant response rating, Wheat” value [2, 18] of the same molecule?
**A.** The value was 0.

**Q.** What about the “Wheat plant response rating” value [2, 19] of the same molecule?
**A.** The value was 30.

**Q.** What about the “Johnsongrass plant response rating” value [3, 20] of the same molecule?
**A.** Its value is 80.

**Q.** What about the “Johnsongrass plant response rating” value [3, 21] of the same molecule?
**A.** The value was 80.

**Q.** And the “Plant response rating, Johnsongrass” value [3, 18]?
**A.** The value was 50.

**Q.** What about the “Johnsongrass plant response rating” value [3, 19] of the same molecule?
**A.** The value was 95.

**Q.** And the “Plant response rating, Oat, Wild” value [4, 18]?
**A.** The value was 0.

**Q.** And the “Oat, Wild plant response rating” value [4, 19]?
**A.** The value was 60.

**Q.** And the “Morningglory plant response rating” value [5, 20]?
**A.** Its value is 0.

**Q.** And the “Morningglory plant response rating” value [5, 21]?
**A.** Its value is 0.

**Q.** And the “Plant response rating, Morningglory” value [5, 18]?
**A.** Its value is 0.

**Q.** What about the “Morningglory plant response rating” value [5, 19] of the same molecule?
**A.** The value was 60.

**Q.** What about the “Nightshade plant response rating” value [6, 20] of the same molecule?
**A.** Its value is 80.

**Q.** What about the “Nightshade plant response rating” value [6, 21] of the same molecule?
**A.** The value was 85.

**Q.** And the “Plant response rating, Nightshade” value [6, 18]?
**A.** The value was 80.

**Q.** What about the “Nightshade plant response rating” value [6, 19] of the same molecule?
**A.** The value was 90.

**Q.** And the “Pigweed plant response rating” value [7, 22]?
**A.** The value was 20.

**Q.** And the “Pigweed plant response rating” value [7, 23]?
**A.** The value was 50.

**Q.** What about the “Pigweed plant response rating” value [7, 24] of the same molecule?
**A.** The value was 100.

**Q.** What about the “Plant response rating, Pigweed” value [7, 25] of the same molecule?
**A.** Its value is 100.

**Q.** And the “Bermudagrass plant response rating” value ([8]; 62 g ai/ha, Preemergence, scale 0 to 100 (0 no effect, 100 complete control))?
**A.** The value was 90.

**Q.** What about the “Bermudagrass plant response rating” value [8, 21] of the same molecule?
**A.** Its value is 100.

**Q.** What about the “Plant response rating, Bermudagrass” value [8, 18] of the same molecule?
**A.** Its value is 85.

**Q.** And the “Bermudagrass plant response rating” value [8, 19]?
**A.** The value was 100.

**Q.** What about the “Corn plant response rating” value [9, 20] of the same molecule?
**A.** The value was 5.

**Q.** And the “Corn plant response rating” value [9, 21]?
**A.** The value was 50.

**Q.** What about the “Plant response rating, Corn” value [9, 18] of the same molecule?
**A.** The value was 0.

**Q.** What about the “Corn plant response rating” value [9, 19] of the same molecule?
**A.** The value was 90.

**Q.** And the “Sunflower plant response rating” value [10, 20]?
**A.** The value was 0.

**Q.** What about the “Sunflower plant response rating” value [10, 21] of the same molecule?
**A.** The value was 0.

**Q.** And the “Plant response rating, Sunflower” value [10, 18]?
**A.** The value was 0.

**Q.** What about the “Sunflower plant response rating” value [10, 19] of the same molecule?
**A.** The value was 40.

**Q.** What about the “Corn plant response rating” value [11, 22] of the same molecule?
**A.** Its value is 0.

**Q.** And the “Corn plant response rating” value [11, 23]?
**A.** The value was 40.

**Q.** And the “Corn plant response rating” value [11, 24]?
**A.** The value was 0.

**Q.** What about the “Plant response rating, Corn” value [11, 25] of the same molecule?
**A.** Its value is 30.

**Q.** What about the “Nutsedge, Yellow plant response rating” value [12, 20] of the same molecule?
**A.** Its value is 0.

**Q.** And the “Nutsedge, Yellow plant response rating” value [12, 21]?
**A.** Its value is 80.

**Q.** And the “Plant response rating, Nutsedge, Yellow” value [12, 18]?
**A.** The value was 0.

**Q.** What about the “Nutsedge, Yellow plant response rating” value [12, 19] of the same molecule?
**A.** The value was 80.

**Q.** What about the “Cocklebur plant response rating” value [13, 20] of the same molecule?
**A.** Its value is 0.

**Q.** What about the “Cocklebur plant response rating” value [13, 21] of the same molecule?
**A.** Its value is 0.

**Q.** And the “Plant response rating, Cocklebur” value [13, 18]?
**A.** The value was 0.

**Q.** And the “Cocklebur plant response rating” value [13, 19]?
**A.** The value was 0.

**Q.** And the “Plant response rating, Ryegrass, Italian” value [14, 18]?
**A.** The value was 0.

**Q.** And the “Ryegrass, Italian plant response rating” value [14, 19]?
**A.** The value was 100.

**Q.** And the “Kochia plant response rating” value [15, 20]?
**A.** Its value is 40.

**Q.** And the “Kochia plant response rating” value [15, 21]?
**A.** The value was 100.

**Q.** And the “Plant response rating, Kochia” value [15, 18]?
**A.** Its value is 0.

**Q.** What about the “Kochia plant response rating” value [15, 19] of the same molecule?
**A.** Its value is 100.

**Q.** What about the “Foxtail, Giant plant response rating” value [16, 20] of the same molecule?
**A.** The value was 70.

**Q.** What about the “Foxtail, Giant plant response rating” value [16, 21] of the same molecule?
**A.** The value was 85.

**Q.** And the “Plant response rating, Foxtail, Giant” value [16, 18]?
**A.** Its value is 20.

**Q.** What about the “Foxtail, Giant plant response rating” value [16, 19] of the same molecule?
**A.** Its value is 100.

**Q.** And the “Morningglory plant response rating” value [17, 22]?
**A.** Its value is 0.

**Q.** What about the “Morningglory plant response rating” value [17, 23] of the same molecule?
**A.** The value was 20.

**Q.** And the “Morningglory plant response rating” value [17, 24]?
**A.** The value was 0.

**Q.** What about the “Plant response rating, Morningglory” value [17, 25] of the same molecule?
**A.** The value was 80.
